In patent US10807982B2, “Bromodomain inhibitors” (CELGENE QUANTICEL RESEARCH, INC., priority 2015, dated 2020) one finds IC50 data, which are given here for ten compounds.

One assay has as its target BRD4(BD1) (Homo sapiens (Human), UniProt O60885). The assay can be described thus: In vitro enzyme inhibition assay (BRD4 AlphaScreen, H4-tetraacetyl peptide). It counts as binding. The conditions noted are these: BRD4(BD1) 2 nM, peptide 15 nM. The protocol:
Determination of the IC50 for the heterocyclic derivative BRD4 inhibitors disclosed herein was performed as follows. His-tagged […] was cloned, expressed and purified to homogeneity. Filipakopoulos et al., 468 Nature 1067 (2010). BRD4 binding and inhibition was assessed by monitoring the interaction of biotinylated H4-tetraacetyl peptide (AnaSpec, H4K5/8/12/16(Ac), biotin—labeled) with the target using the AlphaScreen technology (Life Technologies). In a 384-well ProxiPlate BRD4(BD1) (2 nM final) was combined with peptide (15 nM final) in 50 mM HEPES (pH 7.3), 10 mM NaCl, 0.25 mM TCEP, 0.1% (w/v) BSA, and 0.005% (w/v) Brij-35 either in the presence of DMSO (final 0.4% DMSO) or compound dilution series in DMSO. After 20 min incubation at RT, Alpha streptavidin donor beads and Nickel Chelate acceptor beads were added to a final concentration of 5 μg/mL. After 2 hr of equilibration, plates were read on an Envision instrument and the IC50 was calculated using a four parameter non-linear curve fit.
The ability of the compounds disclosed herein to inhibit BRD4 activity was quantified and the respective IC50 value was determined.

For assay [1], the system named is Raji, human Burkitts lymphoma cells. The assay can be described thus: Cell-MTS cellular proliferation assay, Raji. The settings on record: Homo sapiens, 168 hr incubation. Type of assay: cell-based. The protocol:
(§1) A colorimetric cellular proliferation assay (Cell-MTS assay) was performed to assess the ability of the heterocyclic derivative […] inhibitors disclosed herein to effect the proliferation of established cancer cell lines.
(§2) The Cell-MTS assay is a 7-day plate-based colorimetric assay which quantifies the amount of newly generated NADH in the presence or absence of test compound. The NADH level is used for the quantification of cancer cell proliferation.
(§3) Established cancer cell lines with a variety of driving mutations were obtained from American Type Culture Collection (ATCC) and routinely passaged according to ATCC protocols. For routine assay, these cells were seeded at densities which enabled ˜90% confluence after 7 days of culture. Raji, human Burkitts lymphoma cells, (cMYC) were seeded at 15,000 cells per 96-well. HL-60, human proleukemia cells, (NRAS, p16, p53, c-Myc amplified) were seeded at 5,000 cells per 96-well. NCI-H460, human non-small cell lung cancer cells. (KRAS, PIK3CA, STLK11, p16) were seeded at 3,000 cells per 96-well. 24 hr after plating, cells received an 11 point dilution of test compound with final concentration ranges from 100 µM to 2.0 nM. Cells were incubated in the presence of compound for 168 hr at 37° C., and 5% CO2. At the end of this incubation period, 80 µL of media is removed and 20 µL of CellTiter 96® AQueous Non-Radioactive Cell Proliferation Assay solution (Promega) was added. The cells were incubated until the OD490 was >0.6. IC50 values were calculated using the IDBS XLfit software package and include background subtracted OD490 values and normalization to DMSO controls. Cellular proliferation IC50 values were uploaded and archived using the Chem Biography Platform. Table 3 provides the results of the in vitro enzyme inhibition assay experiments and the in vitro cell-based assay experiments performed with the compounds disclosed herein: […]

In assay [2] the test system is NCI-H460, human non-small cell lung cancer cells. The assay can be described thus: Cell-MTS cellular proliferation assay, NCI-H460. It counts as cell-based. The conditions noted are these: Homo sapiens, 168 hr incubation. The method, then:
as §1, §2, §3

The subject of assay [3] is HL-60, human proleukemia cells. The assay can be described thus: Cell-MTS cellular proliferation assay, HL-60. Type of assay: cell-based. The settings on record: Homo sapiens, HL-60 cells, 168 hr incubation. The method, then:
as §1, §2, §3

In the case of `Cc1cc(-c2cc3c(nc(C)n3Cc3ccc(F)cc3F)c(NS(C)(=O)=O)n2)cn(C)c1=O` [Example 62, N-[1-[(2,4-difluorophenyl)methyl]-6-(1,5-dimethyl-6-oxopyridin-3-yl)-2-methylimidazo[4,5-c]pyridin-4-yl]methanesulfonamide], the concentration for half-maximal inhibition (IC50) against BRD4(BD1) is at most 500 nM; in assay [1] it was at most 500 nM; in assay [2] it was above 5000 nM; in assay [3], at most 500 nM.

For `Cc1cc(-c2cc(NS(C)(=O)=O)c3nc(C)n(Cc4cccc(F)c4)c3c2)cn(C)c1=O` [Example 35, N-[6-(1,5-dimethyl-6-oxopyridin-3-yl)-1-[(3-fluorophenyl)methyl]-2-methylbenzimidazol-4-yl]methanesulfonamide], the concentration for half-maximal inhibition (IC50) on BRD4(BD1) is at most 500 nM; in assay [1], at most 500 nM; in assay [2], 500 to 5000 nM; in assay [3], at most 500 nM.

Regarding `CCS(=O)(=O)c1nn(C)c2cc(OCC3CC3)c(-c3cn(C)c(=O)c4ccccc34)cc12` [Example 30, 4-[6-(cyclopropylmethoxy)-3-ethylsulfonyl-1-methylindazol-5-yl]-2-methylisoquinolin-1-one], the IC50 against BRD4(BD1) was at most 500 nM; in assay [1], at most 500 nM; in assay [2], 500 to 5000 nM; in assay [3] it was at most 500 nM.

Consider `Cc1cc(-c2cc3c(cc2Oc2ccc(F)cc2F)CN(C)S3(=O)=O)cn(C)c1=O` [Example 11, 5-[5-(2,4-difluorophenoxy)-2-methyl-1,1-dioxo-3H-1,2-benzothiazol-6-yl]-1,3-dimethylpyridin-2-one], for which the IC50 against BRD4(BD1) is at most 500 nM; in assay [1] it was at most 500 nM; in assay [2], above 5000 nM; in assay [3], at most 500 nM.

`Cc1cc(-c2cc(NS(C)(=O)=O)cc3cc(-c4ccccc4)oc23)cn(C)c1=O` [Example 83, N-[7-(1,5-dimethyl-6-oxopyridin-3-yl)-2-phenyl-1-benzofuran-5-yl]methane-sulfonamide]: the IC50 against BRD4(BD1) is at most 500 nM; in assay [1], 500 to 5000 nM; in assay [2], 500 to 5000 nM; in assay [3], 500 to 5000 nM.

Consider `Cn1cc(-c2cc(NS(C)(=O)=O)cc3cc(C4CC4)oc23)c2ccccc2c1=O` [Example 79, N-[2-cyclopropyl-7-(2-methyl-1-oxoisoquinolin-4-yl)-1-benzofuran-5-yl]methanesulfonamide], for which the IC50 (at BRD4(BD1); in assay [1]; in assay [2]; in assay [3]) was at most 500 nM each time.

For the compound `CCS(=O)(=O)Nc1cc(-c2cc(C)c(=O)n(C)c2)cc2c1nnn2Cc1ccccc1` [Example 27, N-[1-benzyl-6-(1,5-dimethyl-6-oxopyridin-3-yl)benzotriazol-4-yl]ethanesulfonamide], the IC50 is at most 500 nM at BRD4(BD1), at most 500 nM in assay [1], 500 to 5000 nM in assay [2] and at most 500 nM in assay [3].

`CCS(=O)(=O)Nc1cc(-c2cc(C)c(=O)n(C)c2)c2oc(C3CC3)cc2c1`: the 50% inhibitory concentration (IC50) was at most 500 nM against BRD4(BD1), at most 500 nM in assay [1], 500 to 5000 nM in assay [2] and at most 500 nM in assay [3].

With `Cc1cc(-c2cc(NS(C)(=O)=O)cc3cc(C4CC4)oc23)cn(C)c1=O` [Example 80, N-[2-cyclopropyl-7-(1,5-dimethyl-6-oxopyridin-3-yl)-1-benzofuran-5-yl]methanesulfonamide], the IC50 was at most 500 nM on BRD4(BD1), at most 500 nM in assay [1], 500 to 5000 nM in assay [2] and at most 500 nM in assay [3].

On to `COc1cc2c(cc1-c1cn(C)c(=O)c3ccccc13)S(=O)(=O)N(C)C2` [Example 4, 4-(5-methoxy-2-methyl-1,1-dioxo-3H-1,2-benzothiazol-6-yl)-2-methylisoquinolin-1-one], for which the IC50 was at most 500 nM on BRD4(BD1), 500 to 5000 nM in assay [1], 500 to 5000 nM in assay [2] and at most 500 nM in assay [3].
